Earlier results as cited in patent publication US20080166420A1, “Krill Oil Compositions” (priority 2007, published 2008).

## O=C(O)c1cccnc1 [Niacin, niacin]
Clinically shown
  C-reactive protein (CRP): reduce
  high density lipoproteins: significant increase
  lipoprotein (a): significant reduction
  low density lipoproteins: reduction
  total cholesterol: reduction
  triglycerides: significant reduction
In vivo
  fibrinogen: reduce
